US20100152434A1, “Protein Kinase-binding Nucleosides and Associated Methods” (priority 2007, published 2010)
Where two headings read alike, the source gives them in different places.

Key:
SK-OV-3 [1] = experiment: cells; conditions: Homo sapiens
UACC-257 = experiment: cells; conditions: Homo sapiens
COLO 205 = experiment: cells; conditions: Homo sapiens
HCT-116 = experiment: cells; conditions: Homo sapiens
MDA-MB-231/ATCC = experiment: cells; conditions: Homo sapiens
A549/ATCC = experiment: cells; conditions: Homo sapiens
NCI-H23 = experiment: cells; conditions: Homo sapiens
EKVX [2] = system: EKVX
KM12 = experiment: cells; conditions: Homo sapiens
HOP-62 = conditions: HOP-62
U251 = experiment: cells; conditions: Homo sapiens
SK-OV-3 [3] = system: SK-OV-3
IGROV1 = experiment: cells; conditions: Homo sapiens
788-0 = conditions: 786-0
EKVX [4] = experiment: cells; conditions: Homo sapiens
HCC-2998 = conditions: HCC-2998

CNC(=O)NC[C@H]1O[C@@H](n2cnc3c(NC(=O)Nc4ccccc4)ncnc32)[C@H](O[Si](C)(C)C(C)(C)C)[C@@H]1CC(=O)N(C)OC [Compound 13, 2′-O-(tert-Butyldimethylsilyl)-3′,5′-dideoxy-3′-[(N-methoxy-N-methylcarboxamido)methyl]-5′-[(N-methylcarbamoyl)amino]-N^6-(N-phenylcarbamoyl)adenosine]
TGI (SF-268): >1.00E−4 Molar
Percent Growth (SF-268; Log10 Concentration −4.0): 20%
Percent Growth (SF-268; Log10 Concentration −5.0): 46%
Percent Growth (SF-268; Log10 Concentration −6.0): 91%
Percent Growth (SF-268; Log10 Concentration −7.0): 105%
Percent Growth (SF-268; Log10 Concentration −8.0): 98%
GI50 (SK-OV-3 [1]; SK-OV-3): 52.7 µM
CC50 (SK-OV-3 [1]; SK-OV-3, read-out: LC50): > 100 µM
GI50 (UACC-257; UACC-257): 22.6 µM
CC50 (UACC-257; UACC-257, read-out: LC50): > 100 µM
GI50 (COLO 205; COLO 205): 12.3 µM
CC50 (COLO 205; COLO 205, read-out: LC50): > 100 µM
GI50 (HCT-116; HCT-116): 4.2 µM
CC50 (HCT-116; HCT-116, read-out: LC50): > 100 µM
GI50 (MDA-MB-231/ATCC; MDA-MB-231): 12.3 µM
CC50 (MDA-MB-231/ATCC; MDA-MB-231, read-out: LC50): > 100 µM
GI50 (A549/ATCC; A549): 9.35 µM
CC50 (A549/ATCC; A549, read-out: LC50): > 100 µM
GI50 (NCI-H23; NCI-H23): 57.2 µM
CC50 (NCI-H23; NCI-H23, read-out: LC50): > 100 µM
TGI (EKVX [2]): >1.00E−4 Molar
Percent Growth (EKVX [2]; Log10 Concentration −4.0): 36%
Percent Growth (EKVX [2]; Log10 Concentration −5.0): 60%
Percent Growth (EKVX [2]; Log10 Concentration −6.0): 95%
Percent Growth (EKVX [2]; Log10 Concentration −7.0): 95%
Percent Growth (EKVX [2]; Log10 Concentration −8.0): 94%
GI50 (KM12; KM12): 23.9 µM
CC50 (KM12; KM12, read-out: LC50): > 100 µM
TGI (SF-295): >1.00E−4 Molar
Percent Growth (SF-295; Log10 Concentration −4.0): 20%
Percent Growth (SF-295; Log10 Concentration −5.0): 48%
Percent Growth (SF-295; Log10 Concentration −6.0): 98%
Percent Growth (SF-295; Log10 Concentration −7.0): 93%
Percent Growth (SF-295; Log10 Concentration −8.0): 93%
TGI (HOP-62): >1.00E−4 Molar
Percent Growth (HOP-62; Log10 Concentration −4.0): 28%
Percent Growth (HOP-62; Log10 Concentration −5.0): 64%
Percent Growth (HOP-62; Log10 Concentration −6.0): 86%
Percent Growth (HOP-62; Log10 Concentration −7.0): 88%
Percent Growth (HOP-62; Log10 Concentration −8.0): 92%
GI50 (U251; U-251): 5.66 µM
CC50 (U251; U-251, read-out: LC50): > 100 µM
TGI (SK-OV-3 [3]): >1.00E−4 Molar
Percent Growth (SK-OV-3 [3]; Log10 Concentration −4.0): 38%
Percent Growth (SK-OV-3 [3]; Log10 Concentration −5.0): 82%
Percent Growth (SK-OV-3 [3]; Log10 Concentration −6.0): 95%
Percent Growth (SK-OV-3 [3]; Log10 Concentration −7.0): 97%
Percent Growth (SK-OV-3 [3]; Log10 Concentration −8.0): 96%
TGI (SK-MEL-2): 8.31E−5 Molar
Percent Growth (SK-MEL-2; Log10 Concentration −4.0): −5%
Percent Growth (SK-MEL-2; Log10 Concentration −5.0): 62%
Percent Growth (SK-MEL-2; Log10 Concentration −6.0): 92%
Percent Growth (SK-MEL-2; Log10 Concentration −7.0): 83%
Percent Growth (SK-MEL-2; Log10 Concentration −8.0): 85%
TGI (SNB-75): >1.00E−4 Molar
Percent Growth (SNB-75; Log10 Concentration −4.0): 12%
Percent Growth (SNB-75; Log10 Concentration −5.0): 54%
Percent Growth (SNB-75; Log10 Concentration −6.0): 84%
Percent Growth (SNB-75; Log10 Concentration −7.0): 95%
Percent Growth (SNB-75; Log10 Concentration −8.0): 94%
TGI (A498): 4.03E−5 Molar
Percent Growth (A498; Log10 Concentration −4.0): −16%
Percent Growth (A498; Log10 Concentration −5.0): 24%
Percent Growth (A498; Log10 Concentration −6.0): 87%
Percent Growth (A498; Log10 Concentration −7.0): 96%
Percent Growth (A498; Log10 Concentration −8.0): 90%
GI50 (IGROV1; IGROV-1): 3.72 µM
CC50 (IGROV1; IGROV-1, read-out: LC50): > 100 µM
TGI (788-0): >1.00E−4 Molar
Percent Growth (788-0; Log10 Concentration −4.0): 8%
Percent Growth (788-0; Log10 Concentration −5.0): 48%
Percent Growth (788-0; Log10 Concentration −6.0): 93%
Percent Growth (788-0; Log10 Concentration −7.0): 92%
Percent Growth (788-0; Log10 Concentration −8.0): 95%
TGI (BT-549): >1.00E−4 Molar
Percent Growth (BT-549; Log10 Concentration −4.0): 26%
Percent Growth (BT-549; Log10 Concentration −5.0): 70%
Percent Growth (BT-549; Log10 Concentration −6.0): 96%
Percent Growth (BT-549; Log10 Concentration −7.0): 98%
Percent Growth (BT-549; Log10 Concentration −8.0): 95%
TGI (MALME-3M): >1.00E−4 Molar
Percent Growth (MALME-3M; Log10 Concentration −4.0): 23%
Percent Growth (MALME-3M; Log10 Concentration −5.0): 52%
Percent Growth (MALME-3M; Log10 Concentration −6.0): 93%
Percent Growth (MALME-3M; Log10 Concentration −7.0): 88%
Percent Growth (MALME-3M; Log10 Concentration −8.0): 103%
TGI (SN12C): >1.00E−4 Molar
Percent Growth (SN12C; Log10 Concentration −4.0): 49%
Percent Growth (SN12C; Log10 Concentration −5.0): 66%
Percent Growth (SN12C; Log10 Concentration −6.0): 96%
Percent Growth (SN12C; Log10 Concentration −7.0): 104%
Percent Growth (SN12C; Log10 Concentration −8.0): 106%
GI50 (EKVX [4]): 26.4 µM
CC50 (EKVX [4]; read-out: LC50): > 100 µM
TGI (HCC-2998): >1.00E−4 Molar
Percent Growth (HCC-2998; Log10 Concentration −4.0): 33%
Percent Growth (HCC-2998; Log10 Concentration −5.0): 66%
Percent Growth (HCC-2998; Log10 Concentration −6.0): 100%
Percent Growth (HCC-2998; Log10 Concentration −7.0): 97%
Percent Growth (HCC-2998; Log10 Concentration −8.0): 102%
TGI (LOX IMVI): >1.00E−4 Molar
Percent Growth (LOX IMVI; Log10 Concentration −4.0): 35%
Percent Growth (LOX IMVI; Log10 Concentration −5.0): 43%
Percent Growth (LOX IMVI; Log10 Concentration −6.0): 94%
Percent Growth (LOX IMVI; Log10 Concentration −7.0): 96%
Percent Growth (LOX IMVI; Log10 Concentration −8.0): 97%
